This is an account of results in patent publication US11078228B2, “Ectonucleotidase inhibitors and methods of use thereof” (Calithera Biosciences, Inc., priority 2018, dated 2021).

One may read the IC50 as the concentration that gives 50% inhibition.

recombinant CD73, sequence (P21589 27-547): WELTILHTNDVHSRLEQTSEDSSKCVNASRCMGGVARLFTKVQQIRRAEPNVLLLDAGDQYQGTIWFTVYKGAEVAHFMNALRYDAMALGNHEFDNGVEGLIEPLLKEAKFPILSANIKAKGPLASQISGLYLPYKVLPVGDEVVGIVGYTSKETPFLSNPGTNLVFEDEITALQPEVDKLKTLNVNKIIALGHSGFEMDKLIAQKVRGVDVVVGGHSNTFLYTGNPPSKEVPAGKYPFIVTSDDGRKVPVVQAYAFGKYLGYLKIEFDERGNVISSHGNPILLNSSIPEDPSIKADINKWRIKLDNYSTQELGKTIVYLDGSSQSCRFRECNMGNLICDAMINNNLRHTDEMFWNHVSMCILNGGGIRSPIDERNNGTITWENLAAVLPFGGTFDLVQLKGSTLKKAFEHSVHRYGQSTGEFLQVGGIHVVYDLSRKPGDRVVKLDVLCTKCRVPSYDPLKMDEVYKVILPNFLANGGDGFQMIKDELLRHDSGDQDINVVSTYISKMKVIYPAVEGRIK

This test addresses recombinant CD73 (Homo sapiens (Human), UniProt P21589). The test is described as follows: Assay 2: Inhibition of the CD73 enzyme in vitro (0.05 nM CD73, 1 hour 37° C., Malachite Green). In kind it is biochemical. The following applies: 0.05 nM CD73, 50 μM AMP, 1 hour at 37° C. The gist of the method: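 Soluble recombinant CD73 reactions ran 1 hour at 37° C. Malachite Green was then added, and absorbance at 630 nm was read after 5 min at room temperature. Inorganic phosphate was quantified from a phosphate standard curve.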
Consider `C#C[C@@]1(O)[C@@H](COC(Cc2ccccc2)(C(=O)O)C(=O)O)O[C@@H](n2cnc3c(N4CC[C@@H](O)C4)nc(Cl)nc32)[C@@H]1O` [Example 100, 2-benzyl-2-(((2R,3S,4R,5R)-5-(2-chloro-6-((R)-3-hydroxypyrrolidin-1-yl)-9H-purin-9-yl)-3-ethynyl-3,4-dihydroxytetrahydrofuran-2-yl)methoxy)malonic acid], for which the IC50 is 2 nM. Take `C#C[C@@]1(O)[C@@H](COC(Cc2nccs2)(C(=O)O)C(=O)O)O[C@@H](n2cnc3c(N)nc(Cl)nc32)[C@@H]1O` [Example 142, 2-(((2R,3S,4R,5R)-5-(6-amino-2-chloro-9H-purin-9-yl)-3-ethynyl-3,4-dihydroxytetrahydrofuran-2-yl)methoxy)-2-(thiazol-2-ylmethyl)malonic acid]: the IC50 came out at 5 nM.

For `C#C[C@@]1(O)[C@@H](COC(Cc2ccccc2)(C(=O)O)C(=O)O)O[C@@H](n2cnc3c(N[C@@H](C)CO)nc(Cl)nc32)[C@@H]1O` [Example 95, 2-benzyl-2-(((2R,3S,4R,5R)-5-(2-chloro-6-(((S)-1-hydroxypropan-2-yl)amino)-9H-purin-9-yl)-3-ethynyl-3,4-dihydroxytetrahydrofuran-2-yl)methoxy)malonic acid], the IC50 came out at 7 nM. As for `C#C[C@@]1(O)[C@@H](COC(Cc2ccccc2)(C(=O)O)C(=O)O)O[C@@H](n2cnc3c(N(C)CCOC)nc(Cl)nc32)[C@@H]1O` [Example 39, 2-benzyl-2-(((2R,3S,4R,5R)-5-(2-chloro-6-((2-methoxyethyl)-(methyl)amino)-9H-purin-9-yl)-3-ethynyl-3,4-dihydroxytetrahydrofuran-2-yl)methoxy)malonic acid], the IC50 came to 3 nM.

`C#C[C@@]1(O)[C@@H](COC(CC)(C(=O)O)C(=O)O)O[C@@H](n2cnc3c(N)nc(Cl)nc32)[C@@H]1O` [Example 16, 2-(((2R,3S,4R,5R)-5-(6-amino-2-chloro-9H-purin-9-yl)-3-ethynyl-3,4-dihydroxytetrahydrofuran-2-yl)methoxy)-2-ethylmalonic acid]: the IC50 was 24 nM. Turning to `C#C[C@@]1(O)[C@@H](COC(Cc2ccccc2)(C(=O)O)C(=O)O)O[C@@H](n2cnc3ccc(C(F)(F)F)nc32)[C@@H]1O` [Example 125, 2-benzyl-2-(((2R,3S,4R,5R)-3-ethynyl-3,4-dihydroxy-5-(5-(trifluoromethyl)-3H-imidazo[4,5-b]pyridin-3-yl)tetrahydrofuran-2-yl)methoxy)malonic acid], the IC50 is 235 nM. For the molecule `C#C[C@@]1(O)[C@@H](COC(Cc2ccccc2)(C(=O)O)C(=O)O)O[C@@H](n2cnc3c(N[C@@H]4CCc5ccccc54)nc(Cl)nc32)[C@@H]1O` [Example 69, 2-benzyl-2-(((2R,3S,4R,5R)-5-(2-chloro-6-(((R)-2,3-dihydro-1H-inden-1-yl)amino)-9H-purin-9-yl)-3-ethynyl-3,4-dihydroxytetrahydrofuran-2-yl)methoxy)-malonic acid], the IC50 was found to be 3 nM. On to `C#C[C@@]1(O)[C@@H](COC(Cc2ccccc2)(C(=O)O)C(=O)O)O[C@@H](n2cnc3c(N4CCOCC4)nc(Cl)nc32)[C@@H]1O` [Example 79, 2-benzyl-2-(((2R,3S,4R,5R)-5-(2-chloro-6-morpholino-9H-purin-9-yl)-3-ethynyl-3,4-dihydroxytetrahydrofuran-2-yl)methoxy)malonic acid], for which the IC50 was 4 nM. `C#C[C@@]1(O)[C@@H](COC(Cc2ccc(N3CCCNC3=O)cc2)(C(=O)O)C(=O)O)O[C@@H](n2cnc3c(NCC4CC4)nc(Cl)nc32)[C@@H]1O` [Example 136, 2-(((2R,3S,4R,5R)-5-(2-chloro-6-((cyclopropylmethyl)amino)-9H-purin-9-yl)-3-ethynyl-3,4-dihydroxytetrahydrofuran-2-yl)methoxy)-2-(4-(2-oxotetrahydropyrimidin-1(2H)-yl)benzyl)malonic acid]: the IC50 turned out to be 0.24 nM. Regarding `C#C[C@@]1(O)[C@@H](COC(Cc2ccc(-c3ccccc3)cc2)(C(=O)O)C(=O)O)O[C@@H](n2cnc3c(N)nc(Cl)nc32)[C@@H]1O` [Example 53, 2-([1,1′-biphenyl]-4-ylmethyl)-2-(((2R,3S,4R,5R)-5-(6-amino-2-chloro-9H-purin-9-yl)-3-ethynyl-3,4-dihydroxytetrahydrofuran-2-yl)methoxy)malonic acid], the IC50 stood at 0.3 nM. The result for `C#C[C@@]1(O)[C@@H](COC(Cc2ccccc2)(C(=O)O)C(=O)O)O[C@@H](n2cnc3c(NCCOC)nc(Cl)nc32)[C@@H]1O` [Example 38, 2-benzyl-2-(((2R,3S,4R,5R)-5-(2-chloro-6-((2-methoxyethyl)amino)-9H-purin-9-yl)-3-ethynyl-3,4-dihydroxytetrahydrofuran-2-yl)methoxy)malonic acid] reads 3 nM; that for `C#C[C@@]1(O)[C@@H](COC(Cc2ccc(N3CCCN(CCO)C3=O)cc2)(C(=O)O)C(=O)O)O[C@@H](n2cnc3c(NCC4CC4)nc(Cl)nc32)[C@@H]1O` [Example 138, 2-(((2R,3S,4R,5R)-5-(2-chloro-6-((cyclopropylmethyl)amino)-9H-purin-9-yl)-3-ethynyl-3,4-dihydroxytetrahydrofuran-2-yl)methoxy)-2-(4-(3-(2-hydroxyethyl)-2-oxotetrahydropyrimidin-1 (2H)-yl)benzyl)malonic acid], 0.15 nM; that for `C#C[C@@]1(O)[C@@H](COC(Cc2ccccc2)(C(=O)O)C(=O)O)O[C@@H](n2cnc3c(N[C@@H](C)CC)nc(Cl)nc32)[C@@H]1O` [Example 74, 2-benzyl-2-(((2R,3S,4R,5R)-5-(6-((S)-sec-butylamino)-2-chloro-9H-purin-9-yl)-3-ethynyl-3,4-dihydroxytetrahydrofuran-2-yl)methoxy)malonic acid], 2 nM. With `C#C[C@@]1(O)[C@@H](COC(Cc2ccccc2)(C(=O)O)C(=O)O)O[C@@H](n2cnc3c(NCCc4ccccc4)nc(Cl)nc32)[C@@H]1O` [Example 70, 2-benzyl-2-(((2R,3S,4R,5R)-5-(2-chloro-6-(phenethylamino)-9H-purin-9-yl)-3-ethynyl-3,4-dihydroxytetrahydrofuran-2-yl)methoxy)malonic acid], the IC50 was 1 nM. In the case of `C#C[C@@]1(O)[C@@H](COC(Cc2ccccc2)(C(=O)O)C(=O)O)O[C@@H](n2cnc3c(NC4CC4)nc(Cl)nc32)[C@@H]1O` [Example 83, 2-benzyl-2-(((2R,3S,4R,5R)-5-(2-chloro-6-(cyclopropylamino)-9H-purin-9-yl)-3-ethynyl-3,4-dihydroxytetrahydrofuran-2-yl)methoxy)malonic acid] it was 1 nM. With `C#C[C@@]1(O)[C@@H](COC(Cc2ccc(-c3cccn(CC)c3=O)cc2)(C(=O)O)C(=O)O)O[C@@H](n2cnc3c(NC)nc(Cl)nc32)[C@@H]1O` [Example 130, 2-(((2R,3S,4R,5R)-5-(2-chloro-6-(methylamino)-9H-purin-9-yl)-3-ethynyl-3,4-dihydroxytetrahydrofuran-2-yl)methoxy)-2-(4-(1-ethyl-2-oxo-1,2-dihydropyridin-3-yl)benzyl)malonic acid], the 50% inhibitory concentration (IC50) came out at 0.36 nM. Turning to `C=C[C@@]1(O)[C@@H](COC(Cc2ccccc2)(C(=O)O)C(=O)O)O[C@@H](n2cnc3c(N)nc(Cl)nc32)[C@@H]1O` [Example 57, 2-(((2R,3S,4R,5R)-5-(6-amino-2-chloro-9H-purin-9-yl)-3,4-dihydroxy-3-vinyltetrahydrofuran-2-yl)methoxy)-2-benzylmalonic acid], the IC50 came to 103 nM.

Take `C#C[C@@]1(O)[C@@H](COC(Cc2ccc(N3CCCNC3=O)cc2)(C(=O)O)C(=O)O)O[C@@H](n2cnc3c(NC)nc(Cl)nc32)[C@@H]1O` [Example 141, 2-(((2R,3S,4R,5R)-5-(2-chloro-6-(methylamino)-9H-purin-9-yl)-3-ethynyl-3,4-dihydroxytetrahydrofuran-2-yl)methoxy)-2-(4-(2-oxotetrahydropyrimidin-1 (2H)-yl)benzyl)malonic acid]: the IC50 was determined as 0.23 nM.

Consider `C#C[C@@]1(O)[C@@H](COC(Cc2ccsc2)(C(=O)O)C(=O)O)O[C@@H](n2cnc3c(NCCO)nc(Cl)nc32)[C@@H]1O` [Example 32, 2-(((2R,3S,4R,5R)-5-(2-chloro-6-((2-hydroxyethyl)amino)-9H-purin-9-yl)-3-ethynyl-3,4-dihydroxytetrahydrofuran-2-yl)methoxy)-2-(thiophen-3-ylmethyl)malonic acid], for which the IC50 is 3 nM. For `C#C[C@@]1(O)[C@@H](COC(Cc2ccc(N3CCCN(C)C3=O)cc2)(C(=O)O)C(=O)O)O[C@@H](n2cnc3c(NCC4CC4)nc(Cl)nc32)[C@@H]1O` [Example 150, 2-(((2R,3S,4R,5R)-5-(2-chloro-6-((cyclopropylmethyl)amino)-9H-purin-9-yl)-3-ethynyl-3,4-dihydroxytetrahydrofuran-2-yl)methoxy)-2-(4-(3-methyl-2-oxotetrahydropyrimidin-1 (2H)-yl)benzyl)malonic acid], the IC50 turned out to be 0.16 nM. `C#C[C@@]1(O)[C@@H](COC(Cc2ccc(N3CCCCC3=O)cc2)(C(=O)O)C(=O)O)O[C@@H](n2cnc3c(N)nc(Cl)nc32)[C@@H]1O` [Compound 10, 2-(((2R,3S,4R,5R)-5-(6-amino-2-chloro-9H-purin-9-yl)-3-ethynyl-3,4-dihydroxytetrahydrofuran-2-yl)methoxy)-2-(4-(2-oxopiperidin-1-yl)benzyl)malonic acid]: the IC50 was found to be 0.26 nM.

As for `Nc1nc(Cl)nc2c1ncn2[C@@H]1O[C@H](COC(Cc2ccccc2)(C(=O)O)C(=O)O)[C@](O)(C#CC2CC2)[C@H]1O` [Compound 4, 2-(((2R,3S,4R,5R)-5-(6-amino-2-chloro-9H-purin-9-yl)-3-(cyclopropylethynyl)-3,4-dihydroxytetrahydrofuran-2-yl)methoxy)-2-benzylmalonic acid], the 50% inhibitory concentration (IC50) is 0.5 nM. Take `C#C[C@@]1(O)[C@@H](COC(Cc2ccccc2)(C(=O)O)C(=O)O)O[C@@H](n2cnc3c(NCCO)nc(Cl)nc32)[C@@H]1O` [Example 97, 2-benzyl-2-(((2R,3S,4R,5R)-5-(2-chloro-6-((2-hydroxyethyl)amino)-9H-purin-9-yl)-3-ethynyl-3,4-dihydroxytetrahydrofuran-2-yl)methoxy)malonic acid]: the IC50 was found to be 2 nM.
